# Reference: US20110201629A1, “CYCLOHEXYL AMIDE DERIVATIVES AS CRF RECEPTOR ANTAGONISTS” (priority 2010, published 2011)
# Counter-ions that a name gives are not always drawn.
# Molecular target: T1, CRF-2 (UniProt Q13324)
# T1 sequence (Q13324 1-411): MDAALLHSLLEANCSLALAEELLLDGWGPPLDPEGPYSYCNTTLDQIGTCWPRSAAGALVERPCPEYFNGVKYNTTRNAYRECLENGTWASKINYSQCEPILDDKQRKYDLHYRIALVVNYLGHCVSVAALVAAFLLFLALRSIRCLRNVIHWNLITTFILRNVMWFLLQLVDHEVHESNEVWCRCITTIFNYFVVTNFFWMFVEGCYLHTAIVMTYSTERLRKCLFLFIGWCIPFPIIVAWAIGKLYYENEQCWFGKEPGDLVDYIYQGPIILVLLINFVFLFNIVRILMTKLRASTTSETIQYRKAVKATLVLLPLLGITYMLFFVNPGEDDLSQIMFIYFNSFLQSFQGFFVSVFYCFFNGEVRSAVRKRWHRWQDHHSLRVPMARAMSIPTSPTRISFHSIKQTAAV
# Assay: CRF-2 receptor antagonism, HTRF cAMP assay in CHO cells
# Type: cell-based, human
# Details: Biological data Table 2; inhibition of CRF induced cAMP response in CHO cells, EC50 concentration of CRF
# Experimental: (§1) The CRF-1 and CRF-2 receptor antagonistic activity of the agents of the invention has been determined in vitro in the following assay:
# (§2) Chinese hamster ovary (CHO) cells expressing either the human or rat recombinant CRF-1 or human CRF-2α (Chen et al, Proc Natl Acad Sci USA 90, 8967-8971, 1993; Liaw et al, Endocrinology 137, 72-77, 1996) are propagated in Dulbecco's modified Eagle medium supplemented with 10% foetal calf serum, non-essential amino acids, 100 U/ml penicillin, 100 mg/l streptomycin and 1 g/l geneticin. CHO cells expressing the rat CRF-2β receptor (Wu et al, Endocrinology 148, 1675-1687, 2007) are propagated in HAM's-F12 Glutamax supplemented with 10% foetal calf serum, 100 IU/ml penicillin, 100 mg/l streptomycin, 600 μg/ml hygromycin, 10 μg/ml blasticidin and induced with 1 μg/ml of tetracyclin for 24 hours prior to experimentation. For cyclic AMP determinations the Homogeneous Time-Resolved Fluoresce (HTRF) cAMP dynamic 2 kit (Cisbio International, France) was used as per manufacturers' instructions. CHO cells, previously cryopreserved at 3×10^6 viable cells per ml of cell recovery media (Cat no. 12648-010, Invitrogen), were thawed, centrifuged for 7 mins at 1200 rpm and resuspended in serum free media to give a concentration of 0.5×10^6 cells per/ml. Compounds of the invention, prepared in DMSO, and subsequently diluted 50 fold in assay buffer (1× Hanks balanced salt solution, 0.2% (w/v) bovine serum albumin, 1.7 mM isobutylmethylxanthine and 10 mM Hepes, pH7.4) were then added onto the 384 well low volume black assay plate (Corning Inc, US, Cat. 3676). 2000 cells/well were then added to the assay plate further diluting the compound 2 fold and then the plate was incubated for 15 mins at room temperature. Following incubation, buffer containing a 5 times final concentration of agonist, typically r/h CRF is added to the plate and incubated for 30 min at room temperature. Finally, d2 dye labeled cAMP and cryptate labeled anti-cAMP antibody, both made in lysis buffer, are added to the plate followed by a settling period of 1 hour at room temperature. During the settling period cAMP produced by the cells competes with the d2 labelled cAMP for the anti-cAMP cryptate. The plate is read on the Pherastar (BMG, Germany). Increasing levels of endogenous cAMP produced by cells can be followed by a decrease of FRET fluorescent signal and vice versa. Values represented by a change in arbitrary fluorescence units are converted into cAMP concentrations by use of a standard curve, the reagents for which are supplied with the kit. Antagonist dose response curves (1 nM-31.6 μM) are constructed and tested in the presence of an EC50 concentration of CRF relevant to the receptor (hCRF-1=3 nM, hCRF-2α=2 nM, rCRF-1=1 nM and rCRF-2β=0.1 nM). IC50 values of antagonists are calculated by fitting the percent inhibition of CRF induced cAMP response by increasing concentrations of the antagonists. The fit is performed using the nonlinear logistic function of the Activitybase software package v 5.4.5.27 (IDBS, UK).
row,Structure (SMILES),IC50
1,"Cc1ncc(Cl)cc1C(=O)N[C@H]1CC[C@H](CN2C(=O)C(C)(F)c3ccc(Cl)cc32)CC1 (single isomer, unassigned) [Example 2.33, Trans-5-Chloro-N-[4-(-6-chloro-3-fluoro-3-methyl-2-oxo-2,3-dihydro-indol-1-ylmethyl)-cyclohexyl]-2-methyl-nicotinamide]",876 nM

# Molecular target: T2, CRF-1 (UniProt P34998)
# T2 sequence (P34998 1-415): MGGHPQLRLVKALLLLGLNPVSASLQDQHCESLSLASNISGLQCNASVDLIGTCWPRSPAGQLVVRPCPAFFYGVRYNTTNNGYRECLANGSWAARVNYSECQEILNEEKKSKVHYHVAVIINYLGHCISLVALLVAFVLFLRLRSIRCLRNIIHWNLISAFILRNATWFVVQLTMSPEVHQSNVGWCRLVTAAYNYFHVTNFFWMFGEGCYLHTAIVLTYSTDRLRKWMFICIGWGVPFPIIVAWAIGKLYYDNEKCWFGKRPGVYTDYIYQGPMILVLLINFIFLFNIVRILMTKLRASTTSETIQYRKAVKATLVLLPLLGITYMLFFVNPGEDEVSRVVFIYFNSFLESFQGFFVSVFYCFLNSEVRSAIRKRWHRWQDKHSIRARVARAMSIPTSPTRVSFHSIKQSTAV
# Assay: CRF-1 receptor antagonism, HTRF cAMP assay in CHO cells
# Type: cell-based, human
# Details: Biological data Table 1; inhibition of CRF induced cAMP response in CHO cells, EC50 concentration of CRF
# Experimental: as §1, §2
row,Structure (SMILES),IC50
1,"O=C(N[C@H]1CC[C@H](CN2C(=O)Cc3ccc(Cl)cc32)CC1)c1cc(C(F)(F)F)ccc1Cl [Example 1.1, Trans-2-Chloro-N-[4-(6-chloro-2-oxo-2,3-dihydro-indol-1-ylmethyl)-cyclohexyl]-5-trifluoromethyl-benzamide]",65 nM
2,"O=C(N[C@H]1CC[C@H](CN2C(=O)C(F)(F)c3ccc(Cl)cc32)CC1)c1cc(C(F)(F)F)ccc1Cl [Example 2.1, Trans-2-chloro-N-[4-(6-chloro-3,3-difluoro-2-oxo-2,3-dihydro-indol-1-ylmethyl)-cyclohexyl]-5-trifluoromethyl-benzamide]",149 nM
3,"Cc1ncc(Cl)cc1C(=O)N[C@H]1CC[C@H](CN2C(=O)C(C)(C)c3cccnc32)CC1 [Example 2.3, Trans-5-chloro-N-[4-(3,3-dimethyl-2-oxo-2,3-dihydro-pyrrolo[2,3-b]pyridin-1-ylmethyl)-cyclohexyl]-2-methyl-nicotinamide]",242 nM
4,"O=C(N[C@H]1CC[C@H](CN2C(=O)Cc3cccnc32)CC1)c1cc(C(F)(F)F)ccc1Cl [Example 2.4, Trans-2-chloro-N-[4-(2-oxo-2,3-dihydro-pyrrolo[2,3-b]pyridin-1-ylmethyl)-cyclohexyl]-5-trifluoromethyl-benzamide]",900 nM
5,"O=C(N[C@H]1CC[C@H](CN2C(=O)C3(CC3)c3cc(F)ccc32)CC1)c1cc(C(F)(F)F)ccc1Cl [Example 2.5, Trans-2-chloro-N-{-4-((5′-fluoro-2′-oxospiro[cyclopropane-1,3′-indoline]-1′-yl)methyl)cyclohexyl}-5-(trifluoromethyl)benzamide]",9 nM
6,"COc1ccc2c(c1)C(C)(C)C(=O)N2C[C@H]1CC[C@H](NC(=O)c2cc(C(F)(F)F)ccc2Cl)CC1 [Example 2.7, Trans-2-Chloro-N-[4-(5-methoxy-3,3-dimethyl-2-oxo-2,3-dihydro-indol-1-ylmethyl)-cyclohexyl]-5-trifluoromethyl-benzamide]",166 nM
7,"COc1cc2c(cn1)C(C)(C)C(=O)N2C[C@H]1CC[C@H](NC(=O)c2cc(C(F)(F)F)ccc2Cl)CC1 [Example 2.8, Trans-2-Chloro-N-[4-(6-methoxy-3,3-dimethyl-2-oxo-2,3-dihydro-pyrrolo[3,2-c]pyridin-1-ylmethyl)-cyclohexyl]-5-trifluoromethyl-benzamide]",347 nM
8,"C[C@]1(F)C(=O)N(C[C@H]2CC[C@H](NC(=O)c3cc(C(F)(F)F)ccc3Cl)CC2)c2ccccc21 [Example 2.9, Trans-2-Chloro-N-[4-((R)-3-fluoro-3-methyl-2-oxo-2,3-dihydro-indol-1-ylmethyl)-cyclohexyl]-5-trifluoromethyl-benzamide]",16 nM
9,"C[C@@]1(F)C(=O)N(C[C@H]2CC[C@H](NC(=O)c3cc(C(F)(F)F)ccc3Cl)CC2)c2ccccc21 [Example 2.10, Trans-2-Chloro-N-[4-((S)-3-fluoro-3-methyl-2-oxo-2,3-dihydro-indol-1-ylmethyl)-cyclohexyl]-5-trifluoromethyl-benzamide]",201 nM
10,"CCn1c(=O)n(C[C@H]2CC[C@H](NC(=O)c3cc(Cl)cnc3C)CC2)c2ccncc21 [Example 2.42, Trans-5-Chloro-N-[4-(3-ethyl-2-oxo-2,3-dihydro-imidazo[4,5-c]pyridin-1-ylmethyl)-cyclohexyl]-2-methyl-nicotinamide]",275 nM
11,"Cc1ncc(Cl)cc1C(=O)N[C@H]1CC[C@H](Cn2c(=O)n(C)c3nccc(C)c32)CC1 [Example 2.43, Trans-5-Chloro-N-[4-(3,7-dimethyl-2-oxo-2,3-dihydro-imidazo[4,5-b]pyridin-1-ylmethyl)-cyclohexyl]-2-methyl-nicotinamide]",416 nM
12,"Cc1ncc(C(F)(F)F)cc1C(=O)N[C@H]1CC[C@H](CN2C(=O)C(C)(C)c3ccccc32)CC1 [Example 2.52, Trans-N-[4-(3,3-Dimethyl-2-oxo-2,3-dihydro-indol-1-ylmethyl)-cyclohexyl]-2-methyl-5-trifluoromethyl-nicotinamide]",612 nM
13,"O=C(N[C@H]1CC[C@H](CN2C(=O)Cc3cc(Cl)ccc32)CC1)c1cc(C(F)(F)F)ccc1Cl [Example 3.1, Trans-2-Chloro-N-[4-(5-chloro-2-oxo-2,3-dihydro-indol-1-ylmethyl)-cyclohexyl]-5-trifluoromethyl-benzamide]",205 nM
14,"CC1(C)C(=O)N(C[C@H]2CC[C@H](NC(=O)c3cc(C(F)(F)F)ccc3Cl)CC2)c2ccc(F)cc21 [Example 3.3, Trans-2-Chloro-N-[4-(5-fluoro-3,3-dimethyl-2-oxo-2,3-dihydro-indol-1-ylmethyl)-cyclohexyl]-5-trifluoromethyl-benzamide]",28 nM
15,"Cn1c(=O)n(C[C@H]2CC[C@H](NC(=O)c3cc(C(F)(F)F)ccc3Cl)CC2)c2ncccc21 [Example 3.6, Trans-2-Chloro-N-[4-(1-methyl-2-oxo-1,2-dihydro-imidazo[4,5-b]pyridin-3-ylmethyl)-cyclohexyl]-5-trifluoromethyl-benzamide]",145 nM
16,"O=C(N[C@H]1CC[C@H](Cn2c(=O)[nH]c3ccccc32)CC1)c1cc(C(F)(F)F)ccc1Cl [Example 3.7, Trans-2-Chloro-N-[4-(2-oxo-2,3-dihydro-bcnzoimidazol-1-ylmethyl)-cyclohexyl]-5-trifluoromethyl-benzamide]",91 nM
17,"Cn1c(=O)n(C[C@H]2CC[C@H](NC(=O)c3cc(C(F)(F)F)ccc3Cl)CC2)c2ccccc21 [Example 3.8, Trans-2-Chloro-N-[4-(3-methyl-2-oxo-2,3-dihydro-benzoimidazol-1-ylmethyl)-cyclohexyl]-5-trifluoromethyl-benzamide]",37 nM
18,"Cn1c(=O)n(C[C@H]2CC[C@H](NC(=O)c3cc(Cl)ccc3Cl)CC2)c2ccccc21 [Example 4.2, Trans-2,5-Dichloro-N-[4-(3-methyl-2-oxo-2,3-dihydro-benzoimidazol-1-ylmethyl)-cyclohexyl]-benzamide trifluoroacetate]",118 nM
19,"CC1(C)C(=O)N(C[C@H]2CC[C@H](NC(=O)c3cc(Cl)ccc3Cl)CC2)c2ccccc21 [Example 5.2, Trans-2,5-Dichloro-N-[4-(3,3-dimethyl-2-oxo-2,3-dihydro-indol-1-ylmethyl)-cyclohexyl]-benzamide]",126 nM

# Same assay, conditions: Biological data Table 2; inhibition of CRF induced cAMP response in CHO cells, EC50 concentration of CRF
row,Structure (SMILES),IC50
1,"Cc1ncc(Cl)cc1C(=O)N[C@H]1CC[C@H](CN2C(=O)C(C)(F)c3ccc(Cl)cc32)CC1 (single isomer, unassigned) [Example 2.33, Trans-5-Chloro-N-[4-(-6-chloro-3-fluoro-3-methyl-2-oxo-2,3-dihydro-indol-1-ylmethyl)-cyclohexyl]-2-methyl-nicotinamide]",44 nM
